System: rat small-intestinal brush border membrane vesicles
Assay: Inhibitory effect on 33PO4 uptake into rat small-intestinal brush border membrane vesicles (rapid filtration method)
Assay type: biochemical, Wistar female rat
Conditions: 1 µM test compound; 33PO4 uptake into rat small-intestinal BBMVs, 60 seconds
Method: The ^33PO4 transport activity of the small-intestinal BBMVs was determined by the rapid filtration method. […] Then, ice-cold buffer C (110 mM NaCl, 1 mM KH2PO4, and 10 mM HEPES (pH 7.5)) was added to each reaction mixture, which was immediately suction-filtered through a Millipore filter. The filter was washed with buffer C, and each sample was then dissolved in a liquid scintillator. The amount of ^33PO4 uptake into BBMVs was measured using a liquid scintillation counter. […]

With “(4aS,5S,8R)-1-(3-Fluorobenzyl)-4-hydroxy-N-(5-methyl-2-(trifluoromethyl)furan-3-yl)-2-oxo-2,4a,5,6,7,8-hexahydro-1H-5,8-methanopyrido[1,2-b]pyridazine-3-carboxamide [Example 20]” the “Rate of uptake inhibition (%) (1 µM)” value was 21%.
For CN1N(Cc2ccc(OCCN3CCN(CCOCCO)CC3)c(F)c2F)C(=O)C(C(=O)Nc2ccc(C(F)(F)F)cc2-c2cc(C(F)(F)F)ncn2)=C(O)C12CCC2 [Example 361], the “Rate of uptake inhibition (%) (1 µM)” value was 20%.
In the case of Cc1cccc(CN2C(=O)C(C(=O)Nc3cc(F)c(Br)c(F)c3)=C(O)[C@@]3(C)CCCN23)c1F [Example 195], the “Rate of uptake inhibition (%) (1 µM)” value is reported as 76%.
In the case of CN1N(Cc2ccc(OCCN3CCOC(C)(C)C3)c(F)c2F)C(=O)C(C(=O)Nc2ccc(C(F)(F)F)cc2-c2cc(C(F)(F)F)ncn2)=C(O)C12CCC2 [Example 342], the “Rate of uptake inhibition (%) (1 µM)” value is reported as 43%.
For CN1CCN(CCOc2ccc(CN3C(=O)C(C(=O)Nc4ccc(C(F)(F)F)cc4-c4cc(C(F)(F)F)ncn4)=C(O)C4(CCC4)N3C)c(F)c2F)CC1=O [Example 359], the “Rate of uptake inhibition (%) (1 µM)” value was 37%.
CN1N(Cc2ccc(OCC(=O)N3CCOCC3)c(F)c2F)C(=O)C(C(=O)Nc2ccc(C(F)(F)F)cc2-c2cc(C(F)(F)F)ncn2)=C(O)C12CCC2 [Example 336, 8-[[2,3-Difluoro-4-(2-morpholin-2-oxo-ethoxy)phenyl]methyl]-5-hydroxy-9-methyl-7-oxo-N-[4-(trifluoromethyl)-2-[6-(trifluoromethyl)pyrimidin-4yl]phenyl]-8,9-diazaspiro[3.5]non-5-ene-6-carboxamide] was tested, and the “Rate of uptake inhibition (%) (1 µM)” value was 44%.
With COCCOCCOCCCCCCCCN1C(=O)C(C(=O)Nc2ccc(C(F)(F)F)cc2-c2cc(C(F)(F)F)ncn2)=C(O)[C@@]2(C)CCCN12 [Example 236, (4aR)-4-Hydroxy-1-[8-[2-(2-methoxyethoxy)ethoxy]octyl]-4a-methyl-2-oxo-N-[4-(trifluoromethyl)-2-[6-(trifluoromethyl)pyrimidine-4-yl]phenyl]-6,7-dihydro-5H-pyrrolo[1,2-b]pyridazine-3-carboxamide] the “Rate of uptake inhibition (%) (1 µM)” value was 60%.
With C[C@]12CCCN1N(Cc1cccc(F)c1F)C(=O)C(C(=O)Nc1ccc(C(F)(F)F)cc1-c1ccc(C(F)(F)F)nc1)=C2O [Example 90] the “Rate of uptake inhibition (%) (1 µM)” value was 91%.
C[C@]12CCCN1N(Cc1cccc(F)c1F)C(=O)C(C(=O)Nc1ccc(C(F)(F)F)cc1-c1cc(C#N)ncn1)=C2O [Example 100] was tested, and the “Rate of uptake inhibition (%) (1 µM)” value was 69%.
C[C@]12CCCN1N(Cc1cccc(F)c1F)C(=O)C(C(=O)Nc1ccc(Cl)cc1-c1ccc(C(F)(F)F)nc1)=C2O [Example 86] was tested, and the “Rate of uptake inhibition (%) (1 µM)” value was 83%.
With C[C@]12CCCN1N(Cc1c(Cl)cc(OCCN3CCOCC3)cc1Cl)C(=O)C(C(=O)Nc1cnc(C(F)(F)F)nc1-c1ccc(C(F)(F)F)nc1)=C2O.Cl [Example 146, (4aR)-1-[[2,6-Dichloro-4-(2-morpholin-4-ylethoxy)phenyl]methyl]-4-hydroxy-4a-methyl-2-oxo-N-[2-(trifluoromethyl)-4-[6-(trifluoromethyl)pyridin-3-yl]pyrimidin-5-yl]-6,7-dihydro-5H-pyrrolo[1,2-b]pyridazine-3-carboxamide hydrochloride] the “Rate of uptake inhibition (%) (1 µM)” value was 71%.
With C[C@]12CCCN1N(Cc1cc(Cl)ccc1F)C(=O)C(C(=O)Nc1ccc(C(F)(F)F)cc1-c1cc(C(F)(F)F)ncn1)=C2O [Example 211] the “Rate of uptake inhibition (%) (1 µM)” value was 72%.
COc1c(C#N)ncnc1-c1cc(C(F)(F)F)ccc1NC(=O)C1=C(O)[C@@]2(C)CCCN2N(Cc2cccc(F)c2F)C1=O [Example 25] was tested, and the “Rate of uptake inhibition (%) (1 µM)” value was 82%.
With C[C@]12CCCN1N(Cc1ccc(OCCCCCO)c(F)c1F)C(=O)C(C(=O)Nc1ccc(C(F)(F)F)cc1-c1cc(C(F)(F)F)ncn1)=C2O [Example 162] the “Rate of uptake inhibition (%) (1 µM)” value was 73%.
With COC(=O)c1cccc(-c2cc(C(F)(F)F)ccc2NC(=O)C2=C(O)[C@@]3(C)CCCN3N(Cc3cccc(F)c3F)C2=O)c1OC [Example 65] the “Rate of uptake inhibition (%) (1 µM)” value was 98%.
In the case of C[C@]12CCCN1N(Cc1ccc(OCCCCOC[C@H](O)CO)c(F)c1F)C(=O)C(C(=O)Nc1ccc(Cl)cc1-c1ccc(C(F)(F)F)nc1)=C2O [Example 121, (4aR)-N-[4-Chloro-2-[6-(trifluoromethyl)pyridin-3-yl]phenyl]-1-[[4-[4-[(2R)-2,3-dihydroxypropoxy]butoxy]-2,3-difluorophenyl]methy]-4-hydroxy-4a-methyl-2-oxo-6,7-dihydro-5H-pyrrolo[1,2-b]pyridazine-3-carboxamide], the “Rate of uptake inhibition (%) (1 µM)” value is reported as 72%.
In the case of “(4aR)-1-[(2,3-Difluorophenyl)methyl]-4a-ethyl-4-hydroxy-N-[5-methyl-2-(trifluoromethyl)furan-3-yl]-2-oxo-6,7-dihydro-5H-pyrrolo[1,2-b]pyridazine-3-carboxamide [Example 10]”, the “Rate of uptake inhibition (%) (1 µM)” value is reported as 37%.
For C[C@]12CCCN1N(Cc1ccc(OCCN3CCOCC3)c(F)c1F)C(=O)C(C(=O)Nc1ccc(C(F)(F)F)nc1-c1cncc(C(F)(F)F)c1)=C2O [Example 106], the “Rate of uptake inhibition (%) (1 µM)” value was 79%.
CN(CCO)CCOc1ccc(CN2C(=O)C(C(=O)Nc3ccc(C(F)(F)F)cc3-c3cc(C(F)(F)F)ncn3)=C(O)C3(CCC3)N2C)c(F)c1F [Example 347] was tested, and the “Rate of uptake inhibition (%) (1 µM)” value was 28%.
With COCCN(C)CCOCCOc1ccc(CN2C(=O)C(C(=O)Nc3ccc(C(F)(F)F)cc3-c3cc(C(F)(F)F)ncn3)=C(O)C3(CCCC3)N2C)c(F)c1F [Example 429, 7-[[2,3-Difluoro-4-[2-[2-[2-methoxyethyl(methyl)amino]ethoxy]ethoxy]phenyl]methyl]-10-hydroxy-6-methyl-8-oxo-N-[4-(trifluoromethyl)-2-[6-(trifluoromethyl)pyrimidin-4-yl]phenyl]-6,7-diazaspiro[4.5]dec-9-ene-9-carboxamide] the “Rate of uptake inhibition (%) (1 µM)” value was 41%.
In the case of C[C@]12CCCN1N(Cc1ccc(Cl)cc1)C(=O)C(C(=O)Nc1cc(F)c(Br)c(F)c1)=C2O [Example 223], the “Rate of uptake inhibition (%) (1 µM)” value is reported as 77%.
With C[C@]12CCCN1N(Cc1c(F)cc(C#CCN3CCOCC3)cc1F)C(=O)C(C(=O)Nc1ccc(C(F)(F)F)cc1-c1ccc(C(F)(F)F)nc1)=C2O [Example 132] the “Rate of uptake inhibition (%) (1 µM)” value was 71%.
In the case of CCC1(CC)C(O)=C(C(=O)Nc2ccc(Cl)cc2-c2cc(C(F)(F)F)ncn2)C(=O)N(Cc2ccc(OCCN3CCOCC3)c(F)c2F)N1C [Example 292], the “Rate of uptake inhibition (%) (1 µM)” value is reported as 44%.
With CC1(C)C(O)=C(C(=O)Nc2ccc(C(F)(F)F)cc2-c2cc(C(F)(F)F)ncn2)C(=O)N(Cc2cccc(F)c2F)N1c1ccccc1 [Example 299] the “Rate of uptake inhibition (%) (1 µM)” value was 45%.
C[C@]12CCCN1N(Cc1ccccc1Cl)C(=O)C(C(=O)Nc1cc(F)c(Br)c(F)c1)=C2O [Example 219] was tested, and the “Rate of uptake inhibition (%) (1 µM)” value was 95%.
With CN1N(Cc2cccc(F)c2F)C(=O)C(C(=O)Nc2ccc(C(F)(F)F)nc2-c2ccc(C(F)(F)F)nc2)=C(O)C1(C)C [Example 304] the “Rate of uptake inhibition (%) (1 µM)” value was 51%.
With CCC12CCCCN1N(Cc1cccc(F)c1F)C(=O)C(C(=O)Nc1cc(C)oc1C(F)(F)F)=C2O (stereo not drawn) [Example 19, 1-[2,3-(Difluorophenyl)methyl]-4a-ethyl-4-hydroxy-N-[5-methyl-2-(trifluoromethyl)furan-3-yl]-2-oxo-5,6,7,8-tetrahydropyrido[1,2-b]pyridazine-3-carboxamide] the “Rate of uptake inhibition (%) (1 µM)” value was 41%.
In the case of CN(CCOc1ccc(CN2C(=O)C(C(=O)Nc3ccc(C(F)(F)F)cc3-c3cc(C(F)(F)F)ncn3)=C(O)C3(CCCC3)N2C)c(F)c1F)C1CCOC1 (stereo not drawn) [Example 366], the “Rate of uptake inhibition (%) (1 µM)” value is reported as 38%.
For COc1cc(-c2cc(C(F)(F)F)ccc2NC(=O)C2=C(O)C(C)(C)N(C)N(Cc3cccc(F)c3F)C2=O)cnc1C#N [Example 302], the “Rate of uptake inhibition (%) (1 µM)” value was 79%.
With Cc1cc(NC(=O)C2=C(O)[C@@]3(C)CCCN3N(Cc3cccc(F)c3F)C2=O)c(C(F)(F)F)o1 [Example 7] the “Rate of uptake inhibition (%) (1 µM)” value was 69%.
“(4aR)-1-[(2,3-Difluorophenyl)methyl]-4-hydroxy-N-[5-methyl-2-(trifluoromethyl)furan-3-yl]-2-oxo-4a-propyl-6,7-dihydro-5H-pyrrolo[1,2-b]pyridazine-3-carboxamide [Example 12]” was tested, and the “Rate of uptake inhibition (%) (1 µM)” value was 27%.
In the case of COCCN1CC[C@@H](Oc2ccc(CN3C(=O)C(C(=O)Nc4ccc(C(F)(F)F)cc4-c4cc(C(F)(F)F)ncn4)=C(O)C4(CCC4)N3C)c(F)c2F)C1 [Example 405, 6-[[2,3-Difluoro-4-[(3R)-1-(2-methoxyethyl)pyrrolidin-3-yl]oxyphenyl]methyl]-9-hydroxy-5-methyl-7-oxo-N-[4-(trifluoromethyl)-2-[6-(trifluoromethyl)pyrimidin-4-yl)phenyl]-5,6-diazaspiro[3.5]non-8-ene-8-carboxamide], the “Rate of uptake inhibition (%) (1 µM)” value is reported as 30%.
In the case of CN1N(Cc2ccc(OCCCCOC[C@H](O)CO)c(F)c2F)C(=O)C(C(=O)Nc2ccc(C(F)(F)F)cc2-c2cc(C(F)(F)F)ncn2)=C(O)C12CCCC2 [Example 393], the “Rate of uptake inhibition (%) (1 µM)” value is reported as 45%.
With CC(C)[C@@H]1C(O)=C(C(=O)Nc2ccc(C(F)(F)F)cc2-c2cc(C(F)(F)F)ncn2)C(=O)N(Cc2cccc(F)c2F)N1C [Example 249] the “Rate of uptake inhibition (%) (1 µM)” value was 50%.
C[C@]12CCCN1N(Cc1ccc(SCCN3CCOCC3)c(F)c1F)C(=O)C(C(=O)Nc1ccc(C(F)(F)F)cc1-c1ccc(C(F)(F)F)nc1)=C2O.Cl [Example 163, (4aR)-1-[[2,3-Difluoro-4-(2-morpholin-4-ylethylsulfanyl)phenyl]methyl]-4-hydroxy-4a-methyl-2-oxo-N-(4-(trifluoromethyl)-2-[6-(trifluoromethyl)pyridin-3-yl]phenyl)-6,7-dihydro-5H-pyrrolo[1,2-b]pyridazine-3-carboxamide hydrochloride] was tested, and the “Rate of uptake inhibition (%) (1 µM)” value was 79%.
For C[C@]12CCCN1N(Cc1ccccc1Cl)C(=O)C(C(=O)Nc1ccc(C(F)(F)F)cc1-c1ccc(C(F)(F)F)nc1)=C2O [Example 168], the “Rate of uptake inhibition (%) (1 µM)” value was 72%.

— patent EP2975030B1, “DIHYDROPYRIDAZINE-3,5-DIONE DERIVATIVE” (Chugai Seiyaku Kabushiki Kaisha, priority 2013, dated 2014)
